Test results published in ChEMBL document CHEMBL1158147, “Ultraviolet-mediated cytotoxic activity of phenylheptatriyne from Bidens pilosa L” (J Nat Prod, 1979).
Calls of active or inactive are those of the source. No cut-off for these calls is given here.

What was measured:
[1] = tested on: Microsporum canis; assay: Phototoxicity against Microsporum canis at 5 ug/disk in dark; format: functional, organism-based
[2] = tested on: Escherichia coli; assay: Phototoxicity against Escherichia coli at 5 ug/disk in presence of long wave UV light; format: functional, organism-based
[3] = tested on: Enterococcus faecalis; assay: Phototoxicity against Streptococcus fecalis at 5 ug/disk in dark; format: functional, organism-based
[4] = tested on: Trichophyton mentagrophytes; assay: Phototoxicity against Trichophyton mentagrophytes at 5 ug/disk in presence of long wave UV light; format: functional, organism-based
[5] = tested on: Rhodotorula mucilaginosa; assay: Phototoxicity against Rhodotorula rubra Y96 at 5 ug/disk in dark; format: functional, organism-based
[6] = tested on: Torula; assay: Phototoxicity against Torula sp. at 5 ug/disk in presence of long wave UV light; format: functional, organism-based
[7] = tested on: Nannizzia gypsea; assay: Phototoxicity against Microsporum gypseum at 5 ug/disk in presence of long wave UV light; format: functional, organism-based
[8] = tested on: Candida albicans; assay: Phototoxicity against Candida albicans at 5 ug/disk in presence of long wave UV light; format: functional, organism-based
[9] = tested on: Enterococcus faecalis; assay: Phototoxicity against Streptococcus faecalis at 5 ug/disk in presence of long wave UV light; format: functional, organism-based
[10] = tested on: Saccharomyces cerevisiae; assay: Effect on Saccharomyces cerevisiae assessed as viable cell count at 10 ug/ml in petroleum ether in dark after 15 mins; format: functional
[11] = tested on: Fusarium sp.; assay: Phototoxicity against Fusarium sp. at 5 ug/disk in presence of long wave UV light; format: functional, organism-based
[12] = tested on: Kocuria rosea; assay: Phototoxicity against Micrococcus roseus UBC 289 at 5 ug/disk in dark; format: functional, organism-based
[13] = tested on: Proteus mirabilis; assay: Phototoxicity against Proteus mirabilis UBC 5 at 5 ug/disk in dark; format: functional, organism-based
[14] = tested on: Saccharomyces cerevisiae; assay: Phototoxicity against Saccharomyces cerevisiae at 5 ug/disk in dark; format: functional, organism-based
[15] = tested on: Rhodotorula mucilaginosa; assay: Phototoxicity against Rhodotorula rubra Y96 at 5 ug/disk in presence of long wave UV light; format: functional, organism-based
[16] = Effect on human skin fibroblast cells assessed as viable cell count at 10 ug/ml in petroleum ether after 8.00 Joules/cm UV irradiation for 90 mins by trypan blue exclusion method; format: ADME, cell-based; conditions: read-out: Activity
[17] = tested on: Nannizzia gypsea; assay: Phototoxicity against Microsporum gypseum at 5 ug/disk in dark; format: functional, organism-based
[18] = tested on: Saccharomyces cerevisiae; assay: Effect on Saccharomyces cerevisiae assessed as viable cell count at 10 ug/ml in petroleum ether after 16 Joules/cm'2 UV irradiation for 180 mins; format: functional
[19] = tested on: Saccharomyces cerevisiae; assay: Effect on Saccharomyces cerevisiae assessed as viable cell count at 10 ug/ml in petroleum ether in dark after 60 mins; format: functional
[20] = tested on: Bacillus subtilis; assay: Phototoxicity against Bacillus subtilis at 5 ug/disk in presence of cool-white fluorescent light; format: functional, organism-based
[21] = tested on: DNA; assay: Photochemical activity against denatured calf thymus DNA at 10 ug after UV irradiation with 5.33 Joules/cm'2 for 60 mins by hyperchromicity test; format: nucleic-acid assay; conditions: Bos taurus
[22] = tested on: DNA; assay: Photochemical activity against denatured calf thymus DNA at 10 ug after UV irradiation with 16.00 Joules/cm'2 for 180 mins by hyperchromicity test; format: nucleic-acid assay; conditions: Bos taurus
[23] = tested on: Pseudomonas fluorescens; assay: Phototoxicity against Pseudomonas fluorescens at 5 ug/disk in dark; format: functional, organism-based
[24] = tested on: Candida albicans; assay: Phototoxicity against Candida albicans at 2.5 ug/disk after UV irradiation for 30 mins; format: functional, organism-based
[25] = tested on: Candida albicans; assay: Phototoxicity against Candida albicans at 5 ug/disk in dark; format: functional, organism-based
[26] = tested on: Microsporum canis; assay: Phototoxicity against Microsporum canis at 5 ug/disk in presence of cool-white fluorescent light; format: functional, organism-based

For `CC#CC#CC#Cc1ccccc1` [PHENYLHEPTATRIYNE], the Activity [1] was “inactive”, the Activity [2] was “Active” and the Activity [3] was “inactive”. For the same molecule, the Activity [4] was “Active”, the Activity [5] was “inactive” and the Activity [6] was “Active”. For the same molecule, the Activity [7] was “Active”, the Activity [8] was “Active” and the Activity [9] was “Active”. The Activity [10] was 24.2, the Activity [11] was “Active” and the Activity [12] was “inactive”. The Activity [13] was “inactive”, the Activity [14] was “inactive” and the Activity [15] was “Active”. The viability at 1.5 h, 10 ug/ml [16] was 0%, the Activity [17] was “inactive” and the Activity [18] was 0. The Activity [19] was 48.3, the Activity [20] was “Active” and the Activity [21] was 0.02. For the same molecule, the Activity [22] was 0, the Activity [23] was “inactive” and the Activity [24] was “inactive”. The Activity [25] was “inactive” and the Activity [26] was “Active”.
